Reference: US7220580B2, “Sphingosine 1-phosphate receptor gene, sppr” (University of South Florida, priority 2000, dated 2007)

Legend:
EDG-8 [1] = molecular target: T1, EDG-8 (Rattus norvegicus, UniProt Q9JKM5); conditions: CHO cells expressing EDG-8; cited from earlier work
T1 construct: host or cells: CHO cells

EDG-8 [2] = molecular target: T1, EDG-8; conditions: CHO cells expressing EDG-8; cited from earlier work; remark: listed apart in the source
S1P5 = molecular target: T2, S1P5 (Homo sapiens, UniProt Q9H228); experiment: Erk2 kinase assay in HEK293 cells transiently transfected with S1P5; type: cell-based; conditions: HEK293 cells transiently transfected with S1P5 and HA-Erk2, 1 μM ligand for 5 min, MBP as substrate
T2 construct: The largest PCR product contains a complete open reading frame; expressed in transfected cells; host or cells: HEK293
Protocol: Vector plasmid is added to each transfection reaction to equalize the amount of total DNA (2.1 μg). […] HA-ERK2 is immunoprecipitated from one half of each whole cell lysate and used for measuring the kinase activity utilizing MBP as substrate, while HA-ERK2 immunoprecipitated from the other half is used for determining the amount of ERK2 protein in the immune complex. FIG. 10 illustrates a representative autoradiogram of ^32P incorporation into MBP catalyzed by HA-ERK 2 immunoprecipitated from transiently transfected cells treated as indicated. […] Cell Culture and Transfection. HEK293 cells are grown in Dulbecco's modified eagle's medium supplemented with 10% fetal bovine serum. The cells are transiently transfected with a plasmid encoding HA-tagged Erk2 (HA-Erk2) and either pcDNA 3 S1P5 or pcDNA 3.1. Transfection is achieved by incubating the cells in 60 mm plates with plasmid/Lipofectamine complexes (2.1 μg total DNA/12 μl Lipofectamine) in serum-free medium for 5 hours. The DNA complexes are removed from the medium and the cells are starved overnight in serum-free medium and then used for experimentation. Erk2 Kinase Assay. […] The cells are lysed in buffer containing 50 mM Tris-HC1 pH 7.5, 150 mM NaCl, 1 mM EDTA, 1 mM EGTA, 1 mM DTT, 1% Triton X-100, 25 mM NaF, 5 mM sodium pyrophosphate, 20 mM ρ-nitrophenyl phosphate, 2 μg/mL leupeptin, and 100 μg/mL phenylmethylsulfonyl fluoride. HA-Erk2 is immunoprecipitated with the monoclonal antibody HA.11 (Convance, Richmond, Calif.). […] The reaction is terminated with SDS-containing gel-loading buffer and the reaction mixtures are analyzed on 11% SDS-polyacrylamide gels. The gels are processed by autoradiography. The bands on the gels are quantitated with a PhosphorImager. Erk2 protein in the immunoprecipitate is determined by immunoblotting with a polyclonal antibody to Erk2.

T2 sequence (Q9H228 whole entry): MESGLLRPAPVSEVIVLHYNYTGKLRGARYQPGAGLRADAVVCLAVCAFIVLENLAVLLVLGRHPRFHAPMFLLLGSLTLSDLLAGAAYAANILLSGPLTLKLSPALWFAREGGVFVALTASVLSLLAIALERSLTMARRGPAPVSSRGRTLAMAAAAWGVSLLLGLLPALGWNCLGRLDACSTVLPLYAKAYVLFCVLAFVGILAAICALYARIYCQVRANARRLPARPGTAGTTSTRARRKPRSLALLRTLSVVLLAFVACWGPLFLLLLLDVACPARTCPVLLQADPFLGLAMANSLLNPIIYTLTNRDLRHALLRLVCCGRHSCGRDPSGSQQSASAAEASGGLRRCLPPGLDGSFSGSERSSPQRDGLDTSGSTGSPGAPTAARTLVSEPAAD
T1 sequence (Q9JKM5 whole entry): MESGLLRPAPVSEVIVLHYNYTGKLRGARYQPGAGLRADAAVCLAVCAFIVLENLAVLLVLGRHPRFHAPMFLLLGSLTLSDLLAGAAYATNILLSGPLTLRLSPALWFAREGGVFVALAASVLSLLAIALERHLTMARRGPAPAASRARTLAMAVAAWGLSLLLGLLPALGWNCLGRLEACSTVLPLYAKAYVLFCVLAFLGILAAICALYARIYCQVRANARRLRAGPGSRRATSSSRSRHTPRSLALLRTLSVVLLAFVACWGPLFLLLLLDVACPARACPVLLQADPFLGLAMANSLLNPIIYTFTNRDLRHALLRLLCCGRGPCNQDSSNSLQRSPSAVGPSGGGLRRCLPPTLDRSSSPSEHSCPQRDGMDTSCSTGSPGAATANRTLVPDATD

| Compound | serum-induced activation of Erk1/2 (EDG-8 [1]) | cell proliferation (EDG-8 [2]) | activation of Erk2 activity (S1P5) | activation of Erk2 activity (S1P5; listed as sphingosine-1-phosphate) | activation of Erk2 activity (S1P5; listed as lysophosphatidic acid) |
| --- | --- | --- | --- | --- | --- |
| CCCCCCCCCCCCC/C=C/[C@@H](O)[C@@H](N)COP(=O)(O)O [S1P, sphingosine-1-phosphate] | inhibited | inhibits the cell proliferation | activates Erk2 | activation of Erk2 activity | – |
| lysophosphatidic acid [LPA] | – | – | not | – | does not |
